Test results published in patent publication US20140364453A1, “SALUBRINAL-DRIVEN ATTENUATION OF MALIGNANT PHENOTYPES OF 4T1 BREAST CANCER CELLS” (Indiana University Research and Technology Corporation, priority 2013, published 2014).

Assays:
4T1 cells [1] = experiment: In vitro invasion assay (Boyden chamber, Matrigel), 4T1 cells; type: cell-based, mouse; conditions: for number of cells invaded through the filter coated with Matrigel: 4T1 cells, 24 h, regardless of serum, 10-50 μM salubrinal, 5-50 μM guanabenz
Description: (§1) 4T1 mouse mammary tumor cells and MDA-MB-231 human breast cancer cells were cultured in DMEM containing 10% fetal bovine serum and antibiotics (50 units/ml penicillin, and 50 μg/ml streptomycin; Life Technologies, Grand Island, N.Y., USA). Cells were maintained at 37° C. and 5% CO2 in a humidified incubator. Responses to administration of 10-50 μM salubrinal or 5-50 μM guanabenz acetate (Tocris Bioscience, Ellisville, Mo., USA) were evaluated using assays for MTT, adhesion, invasion, and motility. An invasion assay was performed with a Boyden chamber with minor modifications of the usual procedure. In brief, Matrigel (BD Biosciences) was diluted with ice-cold PBS (100 μg/ml). Six-hundred μl of Matrigel was added to each filter (polyethylene terephthalate membrane, 8-μm pore size, 23.1 mm in diameter, Falcon) and left to polymerize overnight. Prior to assembling the chamber unit, the lower chamber (6-well plate, Falcon) was filled with culture medium consisting of salubrinal or guanabenz. Cells (1˜4×10^5/well) were added to the culture medium with salubrinal or guanabenz in the upper chamber and incubated for 24 h. The cells on the filter surface were stained with Giemsa (Sigma-Aldrich) and the number of cells was counted under the microscope.

[2] = system: 4T1 mouse mammary tumor cells; experiment: MTT assay, 4T1 cells; type: cell-based
Description: (§2) 4T1 mouse mammary tumor cells and MDA-MB-231 human breast cancer cells were cultured in DMEM containing 10% fetal bovine serum and antibiotics (50 units/ml penicillin, and 50 μg/ml streptomycin; Life Technologies, Grand Island, N.Y., USA). Cells were maintained at 37° C. and 5% CO2 in a humidified incubator. Responses to administration of 10-50 μM salubrinal or 5-50 μM guanabenz acetate (Tocris Bioscience, Ellisville, Mo., USA) were evaluated using assays for MTT, adhesion, invasion, and motility. Cells (5×10^2/well) were seeded in 96-well plates, and the reduction of MTT to formazan was evaluated by measuring the absorbance at 570 nm with a plate reader (EL800, BioTek, Winooski, Vt., USA).

NFATc1 = NFATc1 protein expression in primary mouse bone marrow cells; type: cell-based; conditions: 10 or 20 μM; 2 days
4T1 cells [3] = experiment: Two-dimensional wound healing scratch motility assay, 4T1 cells; type: cell-based, mouse; conditions: for cell motility (scratch-wound assay): 4T1 cells, 20 or 50 μM, 24 h
Description: (§3) 4T1 mouse mammary tumor cells and MDA-MB-231 human breast cancer cells were cultured in DMEM containing 10% fetal bovine serum and antibiotics (50 units/ml penicillin, and 50 μg/ml streptomycin; Life Technologies, Grand Island, N.Y., USA). Cells were maintained at 37° C. and 5% CO2 in a humidified incubator. Responses to administration of 10-50 μM salubrinal or 5-50 μM guanabenz acetate (Tocris Bioscience, Ellisville, Mo., USA) were evaluated using assays for MTT, adhesion, invasion, and motility. To evaluate 2-dimensional motility, a wound healing scratch motility assay was carried out. In brief, cells were plated in 12-well plates or 6-cm dishes (Falcon) and on the next day, scratching was performed using a plastic tip. The areas newly occupied with cells in the scratched zone were determined every 3 h up to 24 h using images obtained by a microscope, which were scanned with Adobe Photoshop (CS2, Adobe Systems, San Jose, Calif., USA) and quantified with Image J.

[4] = system: NFATc1, TRAP, OSCAR, c-fos, MMP9, and cathepsin K; experiment: Relative mRNA abundance in primary mouse bone marrow cells; type: cell-based; conditions: 10 μM; 24 h
cleaved caspase 3 [5] = experiment: Western blot of cleaved caspase 3, 4T1 cells; type: cell-based, mouse; conditions: absence and presence of 10% serum, 10-50 μM salubrinal, 5-50 μM guanabenz
Description: (§4) 4T1 mouse mammary tumor cells and MDA-MB-231 human breast cancer cells were cultured in DMEM containing 10% fetal bovine serum and antibiotics (50 units/ml penicillin, and 50 μg/ml streptomycin; Life Technologies, Grand Island, N.Y., USA). Cells were maintained at 37° C. and 5% CO2 in a humidified incubator. Responses to administration of 10-50 μM salubrinal or 5-50 μM guanabenz acetate (Tocris Bioscience, Ellisville, Mo., USA) were evaluated using assays for MTT, adhesion, invasion, and motility. Cells were lysed in a radioimmunoprecipitation assay (RIPA) buffer containing protease inhibitors (Santa Cruz Biotechnology, Santa Cruz, Calif., USA) and phosphatase inhibitors (Calbiochem, Billerica, Mass., USA). Isolated proteins were fractionated using 10-15% SDS gels and electro-transferred to Immobilon-P membranes (Millipore, Billerica, Mass., USA). The membrane was incubated for 1 h with primary antibodies followed by 45 min incubation with goat anti-rabbit or anti-mouse IgG conjugated with horseradish peroxidase (Cell Signaling, Danvers, Mass., USA). […] Protein levels were assayed using a SuperSignal west femto maximum sensitivity substrate (Thermo Scientific, Waltham, Mass., USA), and signal intensities were quantified with a luminescent image analyzer (LAS-3000, Fuji Film, Tokyo, Japan).

[6] = system: primary mouse bone marrow cells; experiment: Osteoclastogenesis in primary mouse bone marrow cells; type: cell-based; conditions: 10 or 20 μM; 3 days
4T1 cells [7] = experiment: Cell adhesion assay, 4T1 cells; type: cell-based, mouse; conditions: surfaces coated with poly-L-lysine, type I collagen, fibronectin, laminin; 30 min and 3 h
Description: 4T1 mouse mammary tumor cells and MDA-MB-231 human breast cancer cells were cultured in DMEM containing 10% fetal bovine serum and antibiotics (50 units/ml penicillin, and 50 μg/ml streptomycin; Life Technologies, Grand Island, N.Y., USA). Cells were maintained at 37° C. and 5% CO2 in a humidified incubator. Responses to administration of 10-50 μM salubrinal or 5-50 μM guanabenz acetate (Tocris Bioscience, Ellisville, Mo., USA) were evaluated using assays for MTT, adhesion, invasion, and motility. Ninety-six well plates were coated with poly-L-lysine, fibronectin, laminin (Sigma-Aldrich, St. Louis, Mo., USA), or type I collagen (BD Biosciences, Bedford, Mass., USA) for 2 h. The plates were then incubated with non-fat dry milk, followed by washing with PBS and serum-free culture medium. Cells (1×10^4/well) were added on the plate, and after 30 min and 3 h the attached cells were stained with 0.04% crystal violet (Sigma-Aldrich) for 10 min at room temperature. The wells were washed with PBS, and DMSO was added. Absorbance at 550 nm was measured using the plate reader.

[8] = system: 4T1 mouse mammary tumor cells; experiment: In vivo tumor growth, BALB/c mice injected with 4T1 cells; conditions: 4T1 cells s.c., 25 μg salubrinal s.c. daily, day 20, mean±S.D., N=18
Description: Experimental procedures were approved by the Indiana University Animal Care and Use Committee and were in compliance with the Guiding Principles in the Care and Use of Animals endorsed by the American Physiological Society. Five mice were housed per cage, and fed with mouse chow and water ad libitum. Thirty-five BALB/c female mice (6 weeks, Harlan Laboratories) were used. Mice received subcutaneous injection of 4T1 mouse mammary tumor cells (10^6 cells in 100 μl PBS) to the abdomen on day 1. Twenty-five μg of salubrinal was administered subcutaneously into the area of cell injection every day, while the control animals received a vehicle. The animals were sacrificed on day 20, and the volume and weight of tumors were determined. The tumor volume was calculated as (long diameter)×(short diameter)^2/2.

[9] = system: MDA-MB-231 human breast cancer cells; experiment: In vitro invasion assay, MDA-MB-231 cells; type: cell-based; conditions: 20 or 50 μM salubrinal, 24 h, absence of serum
Description: as §1

[10] = system: MDA-MB-231 human breast cancer cells; experiment: Scratch motility assay, MDA-MB-231 cells; type: cell-based; conditions: 20 or 50 μM salubrinal, 24 h, 10% serum
Description: as §3

[11] = system: MDA-MB-231 human breast cancer cells; experiment: MTT assay, MDA-MB-231 cells; type: cell-based; conditions: 20 or 50 μM salubrinal
Description: as §2

cleaved caspase 3 [12] = experiment: Western blot of cleaved caspase 3, MDA-MB-231 cells; type: cell-based, human; conditions: 20 or 50 μM salubrinal, absence of serum
Description: as §4

Rac1 GTPase [13] = experiment: FRET-based Rac1 activity imaging, MDA-MB-231 cells; type: cell-based, human; conditions: 20 μM salubrinal
Description: (§5) To visualize Rac1 activity in response to salubrinal, FRET imaging was conducted using a cyan fluorescent protein (CFP)-yellow fluorescent protein (YFP) Rac1 biosensor. The filter sets (Semrock) were chosen for CFP excitation at 438±24 nm (center wavelength±bandwidth), CFP emission at 483±32 nm, and YFP emission at 542±27 nm. Time-lapse images were acquired at an interval of 5 min using a fluorescence microscope (Nikon, Tokyo, Japan). The level of Rac1 activity was determined by computing an emission ratio of YFP/CFP for individual cells using NIS-Elements software (Nikon).

Rac1 GTPase [14] = experiment: FRET-based Rac1 activity imaging, 4T1 cells; type: cell-based, mouse; conditions: 20 μM salubrinal
Description: as §5

Structure (SMILES) | number of cells invaded through the filter coated with Matrigel (4T1 cells [1]) | NFATc1 protein expression (NFATc1) | cell motility (scratch-wound assay) (4T1 cells [3]) | mRNA levels of NFATc1, TRAP, OSCAR, c-fos, MMP9, and cathepsin K [4] | level of cleaved caspase 3 (cleaved caspase 3 [5]) | TRAP-positive multi-nucleated cells [6] | development of osteoclasts [6] | cell adhesion (absorbance reading, number of adherent cells) (4T1 cells [7]) | also measured
N=C(N)N/N=C/c1c(Cl)cccc1Cl [guanabenz] | significantly reduced | Suppression | reduced in a dose dependent manner | reduced | elevated | Reduction | Reduced development of osteoclasts | did not significantly change | number of live 4T1 cells (MTT) ([2]; 50 μM guanabenz): decreased
O=C(/C=C/c1ccccc1)NC(NC(=S)Nc1cccc2cccnc12)C(Cl)(Cl)Cl (stereo not drawn) [salubrinal] | significantly reduced | Suppression | reduced in a dose dependent manner | reduced | elevated | Reduction | Reduced development of osteoclasts | did not significantly change | salubrinal-driven reduction in cell invasion (4T1 cells [1]; 4T1 cells treated with eIF2α siRNA vs NC siRNA, 20 or 50 μM salubrinal): significantly suppressed; cell invasion (4T1 cells [1]; 4T1 control cells treated with NC siRNA, 20 or 50 μM salubrinal): reduced by salubrinal in a dose dependent manner; number of live 4T1 cells (MTT) ([2]; 10, 20, and 50 μM salubrinal): reduced in a dose dependent manner; tumor volume [8]: 384.5±248.1 mm^3; tumor weight [8]: 0.32 ± 0.24 g; cell invasion [9]: Reduction in cell invasion; cell motility [10]: Reduction in cell motility; salubrinal-driven reduction in cell motility (4T1 cells [3]; 4T1 cells treated with eIF2α siRNA, 20 or 50 μM salubrinal): also suppressed; proliferation (relative cell growth) [11]: inhibitory effects; cleaved caspase 3 (cleaved caspase 3 [12]): Dose-dependent elevation; Rac1 activity (emission ratio of YFP/CFP) (Rac1 GTPase [13]): decreased; salubrinal-driven reduction in Rac1 activity (Rac1 GTPase [14]; 4T1 cells transfected with eIF2α siRNA): significantly suppressed; Rac1 activity (emission ratio of YFP/CFP) (Rac1 GTPase [14]; 4T1 cells): decreased
